Legend:
[1] = Particle size measurements using photon correlation spectroscopy (mean Z average diameter, polydispersity); type: physicochemical; conditions: for interaction with poloxamer: individual benzalkonium chloride analogs, thermal cycling (Example 1)
Source text: The following examples employ a Malvern 3000 HS Zetasizer to measure particle size. Particles with diameters that range from 1 to 5000 nm, can be measured using the method of photon correlation spectroscopy (PCS). Particles in this size range are in constant random thermal (or Brownian) motion. This motion causes the intensity of light scattered from the particles to form a moving speckle pattern which, with the use of optics and a photomultiplier, can be detected as a change in intensity with time. Large particles move more slowly than small particles, therefore the rate of fluctuation of light scattered from large particles is slower. PCS uses the rate of change of these light fluctuations to determine the size distribution of the particles scattering light. Data is plotted as the auto-correlation function (counts per correlator against delay time). Analysis of this function obtained over time, with a sufficient number of data points, enables the translational diffusion coefficient of the particles undergoing Brownian motion to be calculated. From this coefficient, together with the temperature and viscosity of the suspending liquid, the particle size can be calculated. For aqueous dispersions, the default set-up of the Malvern 3000 HS Zetasizer calculates the viscosity from the temperature. The best single measurement to describe the size of a poloxamer formulation is the mean Z average or the hydrodynamic diameter, which is calculated using cumulants analysis. The polydispersity describes the width of the distribution.
The size of the particles produced was determined using photon correlation spectroscopy. The particle size as reported herein refers to the mean Z average diameter also known as the hydrodynamic diameter. The surface charge of the particles was also determined using micro-electrophoresis.

[2] = Dissolution characteristics of BAK homologs in PBS; type: physicochemical
Source text: Stock solutions of benzyldimethyldodecylammonium chloride (BAK C12, Fluka Chemical Corp., Milwaukee, Wis., cat #53233), benzyldimethyltetradecylammonium chloride (BAK C14, TCI America, Portland, Oreg., cat #A0208), benzyldimethylhexadecyllammonium chloride (BAK C16, TCI America, Portland, Oreg., cat #B0237) and benzyldimethyloctadecylammonium chloride (BAK C18, TCI America, Portland, Oreg., cat #B1297) were made in PBS.

[3] = Example 9, 269 mg in 70 ml sterile water for injection, homogenized/extruded 10,000 psi, 15° C., 5 passes

SMILES | Particle size [1, 3] [nm] | polydispersity [1, 3] | interaction with poloxamer [1] | formation of cell delivery particles with CRL-1005 and DNA ([1]; thermal cycling method) | Dissolution Temperature ([2]; Concentration in PBS 5 mM) [°C] | Dissolution Temperature ([2]; Concentration in PBS 2 mM) [°C] | Dissolution Temperature ([2]; Concentration in PBS 1 mM) [°C] | formation of small, uniform cell delivery particles with CRL-1005 ([1]; Example 13, thermal cycling method)
CCCCCCCCCCCCCCOCC(C[N+](C)(C)CCO)OCCCCCCCCCCCCCC.[Br-] (racemic) [DMRIE, (±)-N-(2-hydroxyethyl)-N,N-dimethyl-2,3-bis(tetradecyloxy)-1-propanaminium bromide] | 65 | 0.21 | – | – | – | – | – | –
CCCCCCCCCCCC[N+](C)(C)Cc1ccccc1.[Cl-] [BAK C12, benzyldimethyldodecylammonium chloride] | – | – | does not interact with poloxamer | do not form cell delivery particles | – | – | – | –
CCCCCCCCCCCCCC[N+](C)(C)Cc1ccccc1.[Cl-] [BAK C14, benzyldimethyltetradecylammonium chloride] | – | – | interact with poloxamer to produce submicron particles with a positive surface charge | – | 25 | – | – | –
CCCCCCCCCCCCCCCC[N+](C)(C)Cc1ccccc1.[Cl-] [BAK C16, benzyldimethylhexadecyllammonium chloride] | – | – | interact with poloxamer to produce submicron particles with a positive surface charge | – | 45 | 45 | – | –
CCCCCCCCCCCCCCCCCC[N+](C)(C)Cc1ccccc1.[Cl-] [BAK C18, benzyldimethyloctadecylammonium chloride] | – | – | does interact with poloxamer to produce large micron sized particles with a positive surface charge | do not form cell delivery particles | 45 | 45 | 45 | does not form small nor uniform cell delivery particles
